In PubChem BioAssay (NCI):
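All cell lines were grown in 96-well plates and treated with compound for 48 hours. TGI marks complete inhibition of growth.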

Legend:
Assay in all cases: NCI tumour cell line growth inhibition, 48 h
[1] = system: NCI-H460 lung
[2] = system: SF-539 CNS
[3] = system: SNB-75 CNS
[4] = system: UACC-257 melanoma
[5] = system: OVCAR-5 ovarian
[6] = system: HCT-116 colon
[7] = system: OVCAR-4 ovarian
[8] = system: SNB-19 CNS
[9] = system: LOX IMVI melanoma
[10] = system: DMS 273 small cell lung
[11] = system: DLD-1 colon
[12] = system: M14 melanoma
[13] = system: SNB-78 CNS
[14] = system: IGROV1 ovarian
[15] = system: HCC-2998 colon
[16] = system: M19-MEL melanoma
[17] = system: K-562 leukemia
[18] = system: KM20L2 colon
[19] = system: U251 CNS
[20] = system: EKVX NSCLC
[21] = system: 786-0 renal
[22] = system: LXFL 529 NSCLC
[23] = system: SK-MEL-5 melanoma
[24] = system: SN12C renal
[25] = system: NCI-H23 lung
[26] = system: HL-60(TB) leukemia
[27] = system: TK-10 renal
[28] = system: HOP-92 NSCLC
[29] = system: HOP-18 NSCLC
[30] = system: A549 NSCLC
[31] = system: COLO 205 colon
[32] = system: HT29 colon
[33] = system: UACC-62 melanoma
[34] = system: SK-OV-3 ovarian
[35] = system: SK-MEL-2 melanoma
[36] = system: NCI-H522 lung
[37] = system: SF-295 CNS
[38] = system: SF-268 CNS
[39] = system: HCT-15 colon
[40] = system: CAKI-1 renal
[41] = system: RXF 393 renal
[42] = system: ACHN renal
[43] = system: KM12 colon
[44] = system: UO-31 renal
[45] = system: OVCAR-8 ovarian
[46] = system: OVCAR-3 ovarian
[47] = system: SK-MEL-28 melanoma
[48] = system: HOP-62 NSCLC
[49] = system: CCRF-CEM leukemia
[50] = system: RPMI-8226 leukemia
[51] = system: NCI-H226 lung
[52] = system: SW-620 colon
[53] = system: MALME-3M melanoma
[54] = system: XF 498 CNS
[55] = system: A498 renal
[56] = system: DMS 114 small cell lung
[57] = system: MOLT-4 leukemia

## CCOC(=O)C(C)Sc1nnc(COc2ccc(Cl)cc2)n1-c1ccccc1 (configuration not stated)
[1]
  TGI: 31.6 µM
[2]
  TGI: 36.9 µM
[3]
  TGI: > 100 µM
[4]
  TGI: 47.3 µM
[5]
  TGI: 94.8 µM
[6]
  TGI: 36.5 µM
[7]
  TGI: 42.6 µM
[8]
  TGI: 40.1 µM
[9]
  TGI: 27.4 µM
[10]
  TGI: 29.9 µM
[11]
  TGI: 35.1 µM
[12]
  TGI: 30.9 µM
[13]
  TGI: 95.2 µM
[14]
  TGI: 50.3 µM
[15]
  TGI: 49 µM
[16]
  TGI: 34.9 µM
[17]
  TGI: 49.9 µM
[18]
  TGI: 33 µM
[19]
  TGI: 35.1 µM
[20]
  TGI: 83.5 µM
[21]
  TGI: 71.2 µM
[22]
  TGI: 30.4 µM
[23]
  TGI: 35.8 µM
[24]
  TGI: 32.9 µM
[25]
  TGI: 42.7 µM
[26]
  TGI: 39.7 µM
[27]
  TGI: 69.9 µM
[28]
  TGI: 44 µM
[29]
  TGI: > 100 µM
[30]
  TGI: > 100 µM
[31]
  TGI: 33.2 µM
[32]
  TGI: 31.9 µM
[33]
  TGI: 31.8 µM
[34]
  TGI: > 100 µM
[35]
  TGI: 28.4 µM
[36]
  TGI: 5.16 µM
[37]
  TGI: 85.4 µM
[38]
  TGI: 34.7 µM
[39]
  TGI: 27.8 µM
[40]
  TGI: 31.7 µM
[41]
  TGI: 41.7 µM
[42]
  TGI: 31.6 µM
[43]
  TGI: 41.9 µM
[44]
  TGI: 28 µM
[45]
  TGI: 60 µM
[46]
  TGI: 33.5 µM
[47]
  TGI: 49.2 µM
[48]
  TGI: 37.5 µM
[49]
  TGI: 34 µM
[50]
  TGI: 45.7 µM
[51]
  TGI: 46.9 µM
[52]
  TGI: 27.2 µM
[53]
  TGI: 63.6 µM

## Cc1ccc(S(=O)(=O)NC(=O)NCCc2ccccc2)cc1
[1]
  TGI: > 100 µM
[2]
  TGI: > 100 µM
[3]
  TGI: > 100 µM
[4]
  TGI: 88.2 µM
[5]
  TGI: > 100 µM
[6]
  TGI: > 100 µM
[7]
  TGI: > 100 µM
[8]
  TGI: > 100 µM
[9]
  TGI: > 100 µM
[11]
  TGI: > 100 µM
[12]
  TGI: > 100 µM
[13]
  TGI: > 100 µM
[14]
  TGI: > 100 µM
[15]
  TGI: > 100 µM
[16]
  TGI: > 100 µM
[17]
  TGI: > 100 µM
[18]
  TGI: > 100 µM
[54]
  TGI: > 100 µM
[55]
  TGI: > 100 µM
[56]
  TGI: > 100 µM
[19]
  TGI: > 100 µM
[20]
  TGI: > 100 µM
[21]
  TGI: > 100 µM
[22]
  TGI: > 100 µM
[23]
  TGI: > 100 µM
[24]
  TGI: > 100 µM
[25]
  TGI: > 100 µM
[26]
  TGI: > 100 µM
[27]
  TGI: > 100 µM
[28]
  TGI: > 100 µM
[29]
  TGI: > 100 µM
[30]
  TGI: > 100 µM
[31]
  TGI: > 100 µM
[33]
  TGI: > 100 µM
[34]
  TGI: > 100 µM
[35]
  TGI: > 100 µM
[36]
  TGI: > 100 µM
[37]
  TGI: > 100 µM
[38]
  TGI: > 100 µM
[40]
  TGI: > 100 µM
[41]
  TGI: > 100 µM
[42]
  TGI: > 100 µM
[43]
  TGI: > 100 µM
[44]
  TGI: > 100 µM
[45]
  TGI: > 100 µM
[46]
  TGI: > 100 µM
[47]
  TGI: > 100 µM
[48]
  TGI: > 100 µM
[49]
  TGI: > 100 µM
[50]
  TGI: > 100 µM
[51]
  TGI: > 100 µM
[57]
  TGI: > 100 µM
[52]
  TGI: > 100 µM
[53]
  TGI: > 100 µM
